Values quoted from earlier work, collected in patent US20240424053A1, “METHODS AND COMPOSITIONS FOR PROVIDING MYOCARDIAL PROTECTION AND TREATING MYOCARDIAL STRESS AND FIBROSIS” (Tufts Medical Center, Inc., priority 2021, published 2024).

Target: T1, Xa (Homo sapiens, UniProt P00742)
T1 construct: host or cells: HF patients
Details: in vivo; cited from earlier work

T1 sequence (P00742 235-488 limits assumed): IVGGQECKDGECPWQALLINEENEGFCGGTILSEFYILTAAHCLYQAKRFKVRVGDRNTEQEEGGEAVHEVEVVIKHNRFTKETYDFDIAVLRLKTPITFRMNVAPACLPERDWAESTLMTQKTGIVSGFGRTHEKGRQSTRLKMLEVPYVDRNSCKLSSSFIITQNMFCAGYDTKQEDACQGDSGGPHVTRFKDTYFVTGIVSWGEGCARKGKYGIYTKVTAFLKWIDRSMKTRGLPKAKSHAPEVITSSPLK
T1 sequence (P00742 41-179 partner limits assumed): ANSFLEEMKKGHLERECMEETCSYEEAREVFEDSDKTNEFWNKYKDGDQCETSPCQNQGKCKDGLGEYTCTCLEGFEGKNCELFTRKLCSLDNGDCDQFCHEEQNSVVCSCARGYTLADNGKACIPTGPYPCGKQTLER

## O=C(NC[C@H]1CN(c2ccc(N3CCOCC3=O)cc2)C(=O)O1)c1ccc(Cl)s1 [rivaroxaban]
  clinical benefit in HF patients: no clear benefit
